What was measured:
[1] = molecular target: T1, HiBit-BRG1 fusion protein (Homo sapiens, UniProt P51532); test: HiBiT-BRG1 cell-based degradation assay (Nano-Glo HiBiT Lytic Detection); settings: stable HeLa cell line expressing HiBit-BRG1 and LgBit, 24 h incubation; for Dmax: top dose 30 μM, read-out: BRG1 HiBit Degradation Maximum (%); for DC50: read-out: BRMG1 HiBit Degradation IC50
T1 construct: expressed in transfected cells
Summary of the method: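 HeLa cells stably expressing HiBiT-BRG1 and LgBiT treated 24 h with 10-point 3-fold dilutions (top 30 μM, duplicate). Luminescence read after Nano-Glo HiBiT lytic reagent; % degradation relative to DMSO (high control) and 2 μM reference BRM/BRG1 degrader (low control).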

[2] = molecular target: T2, HiBit-BRM fusion protein (Homo sapiens, UniProt P51531); test: HiBiT-BRM cell-based degradation assay (Nano-Glo HiBiT Lytic Detection); settings: stable HeLa cell line expressing HiBiT-BRM, 24 h incubation; for BRM HiBit Degradation Maximum (%): top dose 30 μM; for DC50: read-out: BRM HiBit Degradation IC50
T2 construct: expressed in transfected cells
T2 sequence (P51531 whole entry, the tested form may be a part): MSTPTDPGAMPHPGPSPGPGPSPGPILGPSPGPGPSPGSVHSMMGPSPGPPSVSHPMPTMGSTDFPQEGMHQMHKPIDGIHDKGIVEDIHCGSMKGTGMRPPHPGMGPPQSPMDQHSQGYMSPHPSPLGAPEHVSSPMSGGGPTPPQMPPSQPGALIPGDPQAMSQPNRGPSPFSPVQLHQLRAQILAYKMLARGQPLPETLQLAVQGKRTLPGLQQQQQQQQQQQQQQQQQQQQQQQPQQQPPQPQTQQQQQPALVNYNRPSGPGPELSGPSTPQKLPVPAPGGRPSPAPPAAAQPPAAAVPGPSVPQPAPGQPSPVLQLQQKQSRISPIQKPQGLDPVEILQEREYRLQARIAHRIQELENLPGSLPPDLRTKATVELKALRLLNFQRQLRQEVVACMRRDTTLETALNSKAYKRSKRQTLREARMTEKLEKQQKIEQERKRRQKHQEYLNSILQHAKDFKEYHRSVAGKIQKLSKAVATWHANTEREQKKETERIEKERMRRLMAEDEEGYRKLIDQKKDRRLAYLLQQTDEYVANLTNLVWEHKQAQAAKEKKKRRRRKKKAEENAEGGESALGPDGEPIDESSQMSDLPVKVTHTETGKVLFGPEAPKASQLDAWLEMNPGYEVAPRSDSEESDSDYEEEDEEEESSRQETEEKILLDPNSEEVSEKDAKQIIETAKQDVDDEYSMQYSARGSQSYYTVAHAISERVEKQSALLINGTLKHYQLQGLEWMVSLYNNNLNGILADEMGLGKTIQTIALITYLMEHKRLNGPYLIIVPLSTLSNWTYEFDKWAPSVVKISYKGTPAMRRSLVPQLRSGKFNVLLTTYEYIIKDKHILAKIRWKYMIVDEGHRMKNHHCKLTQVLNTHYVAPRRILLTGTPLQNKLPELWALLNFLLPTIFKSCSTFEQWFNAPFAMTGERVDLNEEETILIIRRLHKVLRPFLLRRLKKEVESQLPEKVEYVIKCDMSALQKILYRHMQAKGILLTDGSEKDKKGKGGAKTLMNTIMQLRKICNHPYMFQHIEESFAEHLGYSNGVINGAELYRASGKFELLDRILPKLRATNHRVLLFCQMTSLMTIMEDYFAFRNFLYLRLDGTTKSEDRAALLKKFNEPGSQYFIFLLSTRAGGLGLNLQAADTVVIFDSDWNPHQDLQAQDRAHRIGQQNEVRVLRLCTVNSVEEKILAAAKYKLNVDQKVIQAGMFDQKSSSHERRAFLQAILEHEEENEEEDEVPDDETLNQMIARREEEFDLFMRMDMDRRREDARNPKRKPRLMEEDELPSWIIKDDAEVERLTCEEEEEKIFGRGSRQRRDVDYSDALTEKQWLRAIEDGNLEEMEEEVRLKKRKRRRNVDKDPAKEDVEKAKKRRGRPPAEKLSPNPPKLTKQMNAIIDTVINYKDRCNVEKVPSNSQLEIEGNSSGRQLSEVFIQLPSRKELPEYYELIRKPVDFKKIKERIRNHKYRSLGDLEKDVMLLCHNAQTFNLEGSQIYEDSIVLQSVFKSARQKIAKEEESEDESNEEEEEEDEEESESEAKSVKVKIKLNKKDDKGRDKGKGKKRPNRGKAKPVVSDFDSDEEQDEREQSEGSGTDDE
Summary of the method: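 Luminescence from reconstituted NanoBiT luciferase in lysed HeLa HiBiT-BRM cells served as the measure of remaining BRM after 24 h treatment. Compounds were tested from 30 μM final downward in 3-fold steps. DMSO and 2 μM of a standard BRM/BRG1 degrader defined the scale limits.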

T1 sequence (P51532 whole entry, the tested form may be a part): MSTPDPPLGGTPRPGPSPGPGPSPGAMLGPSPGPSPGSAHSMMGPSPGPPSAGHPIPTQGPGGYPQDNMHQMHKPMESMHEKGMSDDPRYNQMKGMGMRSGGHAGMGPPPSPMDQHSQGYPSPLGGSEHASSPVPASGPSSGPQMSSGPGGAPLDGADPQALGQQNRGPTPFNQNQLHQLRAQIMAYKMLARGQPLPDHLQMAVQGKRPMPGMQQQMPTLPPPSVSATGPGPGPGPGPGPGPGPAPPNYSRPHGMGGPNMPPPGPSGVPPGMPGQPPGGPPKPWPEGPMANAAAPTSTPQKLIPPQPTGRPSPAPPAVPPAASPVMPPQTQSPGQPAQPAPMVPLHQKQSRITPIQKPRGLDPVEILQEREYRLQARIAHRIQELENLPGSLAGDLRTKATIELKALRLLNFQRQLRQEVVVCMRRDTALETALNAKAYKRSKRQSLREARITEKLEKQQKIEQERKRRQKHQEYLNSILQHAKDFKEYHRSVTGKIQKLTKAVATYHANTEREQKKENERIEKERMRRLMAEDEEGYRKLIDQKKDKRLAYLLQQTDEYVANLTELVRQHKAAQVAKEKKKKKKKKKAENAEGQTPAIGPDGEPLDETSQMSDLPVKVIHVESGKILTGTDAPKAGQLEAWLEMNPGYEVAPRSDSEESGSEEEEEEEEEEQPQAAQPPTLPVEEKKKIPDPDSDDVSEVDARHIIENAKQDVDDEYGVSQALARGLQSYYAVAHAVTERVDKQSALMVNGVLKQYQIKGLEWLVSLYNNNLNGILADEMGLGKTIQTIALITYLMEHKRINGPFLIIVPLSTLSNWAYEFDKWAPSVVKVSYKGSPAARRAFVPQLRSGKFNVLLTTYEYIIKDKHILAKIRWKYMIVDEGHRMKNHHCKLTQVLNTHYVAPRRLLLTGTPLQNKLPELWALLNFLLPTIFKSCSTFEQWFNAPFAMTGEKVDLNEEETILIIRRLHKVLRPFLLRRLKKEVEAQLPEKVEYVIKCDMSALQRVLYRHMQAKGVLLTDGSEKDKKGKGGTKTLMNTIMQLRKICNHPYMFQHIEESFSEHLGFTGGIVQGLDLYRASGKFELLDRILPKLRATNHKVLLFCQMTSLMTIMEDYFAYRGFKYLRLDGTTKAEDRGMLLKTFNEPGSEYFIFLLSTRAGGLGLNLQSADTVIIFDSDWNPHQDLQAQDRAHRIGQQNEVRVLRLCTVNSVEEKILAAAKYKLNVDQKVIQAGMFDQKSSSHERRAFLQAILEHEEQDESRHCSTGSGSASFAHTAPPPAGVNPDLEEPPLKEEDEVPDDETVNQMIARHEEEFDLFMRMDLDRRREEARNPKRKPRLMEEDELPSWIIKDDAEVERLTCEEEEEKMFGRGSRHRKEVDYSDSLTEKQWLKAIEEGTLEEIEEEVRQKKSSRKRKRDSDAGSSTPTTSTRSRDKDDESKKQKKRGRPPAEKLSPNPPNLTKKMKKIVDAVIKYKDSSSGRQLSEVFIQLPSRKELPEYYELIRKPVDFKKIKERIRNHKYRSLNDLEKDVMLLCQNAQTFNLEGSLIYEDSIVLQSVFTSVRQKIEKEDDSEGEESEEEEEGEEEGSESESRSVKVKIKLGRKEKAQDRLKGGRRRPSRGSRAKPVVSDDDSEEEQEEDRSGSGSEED

With `Cc1ncsc1-c1ccc([C@H](C)NC(=O)[C@@H]2C[C@@H](O)CN2C(=O)[C@@H](c2cc(OCC(=O)N3CCc4sc5nnc(-c6ccccc6O)cc5c4C3)no2)C(C)C)cc1` [Compound 91, (2S,4R)-4-hydroxy-1-((R)-2-(3-(2-(3-(2-hydroxyphenyl)-7,8-dihydropyrido[3′,4′:4, 5]thieno[2,3-c]pyridazin-6(5H)-yl)-2-oxoethoxy)isoxazol-5-yl)-3-methylbutanoyl)-N-((S)-1-(4-(4-methylthiazol-5-yl)phenyl)ethyl)pyrrolidine-2-carboxamide] the Dmax [1] was less than 50%, the DC50 [1] was no less than 1 µM and the “BRM HiBit Degradation Maximum (%)” value [2] was “C (“C” indicates maximum degradation < 50%)”. For the same molecule, the DC50 [2] was no less than 1 µM.

With `Cc1ncsc1-c1ccc([C@H](C)NC(=O)[C@@H]2C[C@@H](O)CN2C(=O)[C@@H](c2cc(N3CCC(CN4CCc5sc6nnc(-c7ccccc7O)cc6c5C4)CC3)no2)C(C)C)cc1` [Compound 92, (2S,4R)-4-hydroxy-1-((R)-2-(3-(4-((3-(2-hydroxyphenyl)-7,8-dihydropyrido[3′,4′:4,5]thieno[2,3-c]pyridazin-6(5H)-yl)methyl)piperidin-1-yl)isoxazol-5-yl)-3-methylbutanoyl)-N-((S)-1-(4-(4-methylthiazol-5-yl)phenyl)ethyl)pyrrolidine-2-carboxamide] the Dmax [1] was no less than 50%, the DC50 [1] was no less than 1 µM and the “BRM HiBit Degradation Maximum (%)” value [2] was “C (“C” indicates maximum degradation < 50%)”. The DC50 [2] was no less than 1 µM.

In the case of `Cc1ncsc1-c1ccc([C@H](C)NC(=O)[C@@H]2C[C@@H](O)CN2C(=O)[C@@H](c2cc(OCC(=O)N3CCC(c4sc5nnc(-c6ccccc6O)cc5c4C)CC3)no2)C(C)C)cc1` [Compound 93, (2S,4R)-4-hydroxy-1-((R)-2-(3-(2-(4-(3-(2-hydroxyphenyl)-5-methylthieno[2,3-c]pyridazin-6-yl)piperidin-1-yl)-2-oxoethoxy)isoxazol-5-yl)-3-methylbutanoyl)-N-((S)-1-(4-(4-methylthiazol-5-yl)phenyl)ethyl)pyrrolidine-2-carboxamide], the Dmax [1] is reported as less than 50%, the DC50 [1] is reported as no less than 1 µM and the “BRM HiBit Degradation Maximum (%)” value [2] is reported as “A (“A” indicates maximum degradation ≥ 75%)”. For the same molecule, the DC50 [2] was no less than 0.01 µM.

For `Cc1ncsc1-c1ccc([C@H](C)NC(=O)[C@@H]2C[C@@H](O)CN2C(=O)[C@@H](c2cc(N3CCC(CN4CCC(c5sc6nnc(-c7ccccc7O)cc6c5C)CC4)CC3)no2)C(C)C)cc1` [Compound 94, (2S,4R)-4-hydroxy-1-((R)-2-(3-(4-((4-(3-(2-hydroxyphenyl)-5-methylthieno[2,3-c]pyridazin-6-yl)piperidin-1-yl)methyl)piperidin-1-yl)isoxazol-5-yl)-3-methylbutanoyl)-N-((S)-1-(4-(4-methylthiazol-5-yl)phenyl)ethyl)pyrrolidine-2-carboxamide], the Dmax [1] was less than 50%, the DC50 [1] was no less than 1 µM and the “BRM HiBit Degradation Maximum (%)” value [2] was “A (“A” indicates maximum degradation ≥ 75%)”. The DC50 [2] was less than 0.01 µM.

`Cc1ncsc1-c1ccc([C@H](C)NC(=O)[C@@H]2C[C@@H](O)CN2C(=O)[C@@H](c2cc(OCCCN3CCC(c4sc5nnc(-c6ccccc6O)cc5c4C)CC3)no2)C(C)C)cc1` [Compound 95, (2S,4R)-4-hydroxy-1-((R)-2-(3-(3-(4-(3-(2-hydroxyphenyl)-5-methylthieno[2,3-c]pyridazin-6-yl)piperidin-1-yl)propoxy)isoxazol-5-yl)-3-methylbutanoyl)-N-((S)-1-(4-(4-methylthiazol-5-yl)phenyl)ethyl)pyrrolidine-2-carboxamide] was tested, and the Dmax [1] was less than 50%, the DC50 [1] was no less than 1 µM and the “BRM HiBit Degradation Maximum (%)” value [2] was “A (“A” indicates maximum degradation ≥ 75%)”. For the same molecule, the DC50 [2] was less than 0.01 µM.

`Cc1ncsc1-c1ccc([C@H](C)NC(=O)[C@@H]2C[C@@H](O)CN2C(=O)[C@@H](c2cc(N3CCC(N4CCC(c5sc6nnc(-c7ccccc7O)cc6c5C)CC4)CC3)no2)C(C)C)cc1` [Compound 96, (2S,4R)-4-hydroxy-1-((R)-2-(3-(4-(3-(2-hydroxyphenyl)-5-methylthieno[2,3-c]pyridazin-6-yl)-[1,4'-bipiperidin]-1'-yl)isoxazol-5-yl)-3-methylbutanoyl)-N-((S)-1-(4-(4-methylthiazol-5-yl)phenyl)ethyl)pyrrolidine-2-carboxamide] was tested, and the Dmax [1] was less than 50%, the DC50 [1] was no less than 1 µM and the “BRM HiBit Degradation Maximum (%)” value [2] was “A (“A” indicates maximum degradation ≥ 75%)”. The DC50 [2] was less than 0.01 µM.

In the case of `Cc1ncsc1-c1ccc([C@H](C)NC(=O)[C@@H]2C[C@@H](O)CN2C(=O)[C@@H](c2cc(OCCN3CCC(c4cc5nnc(-c6ccccc6O)cc5s4)CC3)no2)C(C)C)cc1` [Compound 97, (2S,4R)-4-hydroxy-1-((R)-2-(3-(2-(4-(3-(2-hydroxyphenyl)thieno[3,2-c]pyridazin-6-yl)piperidin-1-yl)ethoxy)isoxazol-5-yl)-3-methylbutanoyl)-N-((S)-1-(4-(4-methylthiazol-5-yl)phenyl)ethyl)pyrrolidine-2-carboxamide], the Dmax [1] is reported as less than 50%, the DC50 [1] is reported as no less than 1 µM and the “BRM HiBit Degradation Maximum (%)” value [2] is reported as “A (“A” indicates maximum degradation ≥ 75%)”. The DC50 [2] was less than 0.01 µM.

In the case of `Cc1ncsc1-c1ccc([C@H](C)NC(=O)[C@@H]2C[C@@H](O)CN2C(=O)[C@@H](c2cc(N3CCC(C(=O)N4CCC(c5sc6nnc(-c7ccccc7O)cc6c5C)CC4)CC3)no2)C(C)C)cc1` [Compound 98, (2S,4R)-4-hydroxy-1-((R)-2-(3-(4-(4-(3-(2-hydroxyphenyl)-5-methylthieno[2,3-c]pyridazin-6-yl)piperidine-1-carbonyl)piperidin-1-yl)isoxazol-5-yl)-3-methylbutanoyl)-N-((S)-1-(4-(4-methylthiazol-5-yl)phenyl)ethyl)pyrrolidine-2-carboxamide], the Dmax [1] is reported as no less than 50%, the DC50 [1] is reported as no less than 1 µM and the “BRM HiBit Degradation Maximum (%)” value [2] is reported as “A (“A” indicates maximum degradation ≥ 75%)”. The DC50 [2] was less than 0.01 µM.

`Cc1ncsc1-c1ccc([C@H](C)NC(=O)[C@@H]2C[C@@H](O)CN2C(=O)[C@@H](c2cc(N3CCC(C(=O)N4CC(c5cc6nnc(-c7ccccc7O)cc6s5)C4)CC3)no2)C(C)C)cc1` [Compound 99, (2S,4R)-4-hydroxy-1-((R)-2-(3-(4-(3-(3-(2-hydroxyphenyl)thieno[3,2-c]pyridazin-6-yl)azetidine-1-carbonyl)piperidin-1-yl)isoxazol-5-yl)-3-methylbutanoyl)-N-((S)-1-(4-(4-methylthiazol-5-yl)phenyl)ethyl)pyrrolidine-2-carboxamide] was tested, and the Dmax [1] was less than 50%, the DC50 [1] was no less than 1 µM and the “BRM HiBit Degradation Maximum (%)” value [2] was “A (“A” indicates maximum degradation ≥ 75%)”. It also gave a DC50 [2] of no less than 0.01 µM.

In the case of `Cc1ncsc1-c1ccc([C@H](C)NC(=O)[C@@H]2C[C@@H](O)CN2C(=O)[C@@H](c2cc(OCCN3CCC(N4CC(c5sc6nnc(-c7ccccc7O)cc6c5C)C4)CC3)no2)C(C)C)cc1` [Compound 100, (2S,4R)-4-hydroxy-1-((R)-2-(3-(2-(4-(3-(3-(2-hydroxyphenyl)-5-methylthieno[2,3-c]pyridazin-6-yl)azetidin-1-yl)piperidin-1-yl)ethoxy)isoxazol-5-yl)-3-methylbutanoyl)-N-((S)-1-(4-(4-methylthiazol-5-yl)phenyl)ethyl)pyrrolidine-2-carboxamide], the Dmax [1] is reported as less than 50%, the DC50 [1] is reported as no less than 1 µM and the “BRM HiBit Degradation Maximum (%)” value [2] is reported as “A (“A” indicates maximum degradation ≥ 75%)”. It also gave a DC50 [2] of no less than 0.01 µM.

For `Cc1ncsc1-c1ccc([C@H](C)NC(=O)[C@@H]2C[C@@H](O)CN2C(=O)[C@@H](c2cc(OCCN3CCC(c4csc5nnc(-c6ccccc6O)cc45)CC3)no2)C(C)C)cc1` [Compound 101, (2S,4R)-4-hydroxy-1-((R)-2-(3-(2-(4-(3-(2-hydroxyphenyl)thieno[2,3-c]pyridazin-5-yl)piperidin-1-yl)ethoxy)isoxazol-5-yl)-3-methylbutanoyl)-N-((S)-1-(4-(4-methylthiazol-5-yl)phenyl)ethyl)pyrrolidine-2-carboxamide], the Dmax [1] was less than 50%, the DC50 [1] was no less than 1 µM and the “BRM HiBit Degradation Maximum (%)” value [2] was “C (“C” indicates maximum degradation < 50%)”. It also gave a DC50 [2] of no less than 1 µM.

In the case of `Cc1ncsc1-c1ccc([C@H](C)NC(=O)[C@@H]2C[C@@H](O)CN2C(=O)[C@@H](c2cc(OCCN3CC(c4csc5nnc(-c6ccccc6O)cc45)C3)no2)C(C)C)cc1` [Compound 102, (2S,4R)-4-hydroxy-1-((R)-2-(3-(2-(3-(3-(2-hydroxyphenyl)thieno[2,3-c]pyridazin-5-yl)azetidin-1-yl)ethoxy)isoxazol-5-yl)-3-methylbutanoyl)-N-((S)-1-(4-(4-methylthiazol-5-yl)phenyl)ethyl)pyrrolidine-2-carboxamide], the Dmax [1] is reported as less than 50%, the DC50 [1] is reported as no less than 1 µM and the “BRM HiBit Degradation Maximum (%)” value [2] is reported as “C (“C” indicates maximum degradation < 50%)”. It also gave a DC50 [2] of no less than 1 µM.

In the case of `Cc1ncsc1-c1ccc([C@H](C)NC(=O)[C@@H]2C[C@@H](O)CN2C(=O)[C@@H](c2cc(N3CCC(CN4CC(c5cc6nnc(-c7ccccc7O)cc6s5)C4)CC3)no2)C(C)C)cc1` [Compound 103, (2S,4R)-4-hydroxy-1-((R)-2-(3-(4-((3-(3-(2-hydroxyphenyl)thieno[3,2-c]pyridazin-6-yl)azetidin-1-yl)methyl)piperidin-1-yl)isoxazol-5-yl)-3-methylbutanoyl)-N-((S)-1-(4-(4-methylthiazol-5-yl)phenyl)ethyl)pyrrolidine-2-carboxamide], the Dmax [1] is reported as less than 50%, the DC50 [1] is reported as no less than 1 µM and the “BRM HiBit Degradation Maximum (%)” value [2] is reported as “A (“A” indicates maximum degradation ≥ 75%)”. It also gave a DC50 [2] of no less than 0.01 µM.
